Source: EP4722219A1 (Gan & Lee Pharmaceuticals Co., Ltd., priority 2023, dated 2024)

Key:
Format in all cases: cell-based
[1] = biological target: T1, SMARCA2 (Homo sapiens, UniProt P51531); test: SMARCA2 degradation in HeLa cells (Western blot); parameters: endogenous in cells; settings: 4 hours
Description: (§1) Test Example 10 Degradation rate (%) of SMARCA2/4 by the PROTAC compounds of the present invention in HeLa cells and SW1573 cells
(§2) HeLa cells were seeded at 1.2 x 10^5 cells/well in a 6-well plate. 2 mL of EMEM medium supplemented with 10% FBS was added to each well and the culture dish was incubated overnight to allow the cells to adhere. The next day, 1 µL of 160 µM and 1 µL of 2 µM compound were added to the corresponding wells, resulting in final compound concentrations of 80 nM and 1 nM, respectively, and a final DMSO concentration of 0.05%. The cells were returned to the incubator and incubated for another 4 hours.
(§3) After 4 hours, cells were harvested, the culture medium was aspirated, and the cells were rinsed once with 1 mL/well PBS. The PBS was aspirated, and 40 µL/well of RIPA lysis buffer containing protease inhibitors was added. After lysis and centrifugation, total protein extracts were obtained, and protein concentration in the extracts was determined by BCA assay. Protein electrophoresis was performed by SDS-PAGE, followed by constant voltage electrophoresis at 100 V for 60 minutes and the protein was then transferred to a PVDF membrane. The PVDF membrane was blocked in 5% skim milk powder for 1 hour at room temperature. Primary antibodies (SMARCA2: CST#11966S, SMARCA4: CST#49360S, GAPDH: CST#5174S) were added and incubated overnight at 4°C. After washing the membrane, secondary antibodies were added and incubated at room temperature for 1 hour (protected from the light). After washing, the membrane was exposed using an Odyssey luminometer. Grayscale analysis of bands was performed using Image Studio software.
(§4) The degradation rate (%) of SMARCA2/4 by the PROTAC compounds of the present invention in HeLa cells and SW1573 cells is shown in Table 10. Table 10 Degradation rate of SMARCA2/4 by PROTAC compounds of the present invention in HeLa cells and SW1573 cells (%)

[2] = biological target: T1, SMARCA2; test: SMARCA2 degradation in SW1573 cells (Western blot); parameters: endogenous in cells; host or cells: SW1573; settings: 24 hours
Description: as §1
as §2, with “SW1573” for “HeLa”, “2x10^5Cells/well” for “1.2 x 10^5 cells/well”, “and” for “and the culture dish”, “cell attachment.” for “the cells to adhere.”, “wells for treatment,” for “wells,”, “24” for “4”
as §3, with “After 24” for “After 4”, “the” for “the culture”
as §4

[3] = biological target: SMARCA4 (Homo sapiens, UniProt P51532); test: SMARCA4 degradation in SW1573 cells (Western blot); parameters: endogenous in cells; host or cells: SW1573; settings: 24 hours; for Dmax at 0.001 µM / Dmax at 0.08 µM: read-out: Degradation rate of SMARCA4 in SW1573 cells (%)
Sequence of SMARCA4 (P51532 whole entry): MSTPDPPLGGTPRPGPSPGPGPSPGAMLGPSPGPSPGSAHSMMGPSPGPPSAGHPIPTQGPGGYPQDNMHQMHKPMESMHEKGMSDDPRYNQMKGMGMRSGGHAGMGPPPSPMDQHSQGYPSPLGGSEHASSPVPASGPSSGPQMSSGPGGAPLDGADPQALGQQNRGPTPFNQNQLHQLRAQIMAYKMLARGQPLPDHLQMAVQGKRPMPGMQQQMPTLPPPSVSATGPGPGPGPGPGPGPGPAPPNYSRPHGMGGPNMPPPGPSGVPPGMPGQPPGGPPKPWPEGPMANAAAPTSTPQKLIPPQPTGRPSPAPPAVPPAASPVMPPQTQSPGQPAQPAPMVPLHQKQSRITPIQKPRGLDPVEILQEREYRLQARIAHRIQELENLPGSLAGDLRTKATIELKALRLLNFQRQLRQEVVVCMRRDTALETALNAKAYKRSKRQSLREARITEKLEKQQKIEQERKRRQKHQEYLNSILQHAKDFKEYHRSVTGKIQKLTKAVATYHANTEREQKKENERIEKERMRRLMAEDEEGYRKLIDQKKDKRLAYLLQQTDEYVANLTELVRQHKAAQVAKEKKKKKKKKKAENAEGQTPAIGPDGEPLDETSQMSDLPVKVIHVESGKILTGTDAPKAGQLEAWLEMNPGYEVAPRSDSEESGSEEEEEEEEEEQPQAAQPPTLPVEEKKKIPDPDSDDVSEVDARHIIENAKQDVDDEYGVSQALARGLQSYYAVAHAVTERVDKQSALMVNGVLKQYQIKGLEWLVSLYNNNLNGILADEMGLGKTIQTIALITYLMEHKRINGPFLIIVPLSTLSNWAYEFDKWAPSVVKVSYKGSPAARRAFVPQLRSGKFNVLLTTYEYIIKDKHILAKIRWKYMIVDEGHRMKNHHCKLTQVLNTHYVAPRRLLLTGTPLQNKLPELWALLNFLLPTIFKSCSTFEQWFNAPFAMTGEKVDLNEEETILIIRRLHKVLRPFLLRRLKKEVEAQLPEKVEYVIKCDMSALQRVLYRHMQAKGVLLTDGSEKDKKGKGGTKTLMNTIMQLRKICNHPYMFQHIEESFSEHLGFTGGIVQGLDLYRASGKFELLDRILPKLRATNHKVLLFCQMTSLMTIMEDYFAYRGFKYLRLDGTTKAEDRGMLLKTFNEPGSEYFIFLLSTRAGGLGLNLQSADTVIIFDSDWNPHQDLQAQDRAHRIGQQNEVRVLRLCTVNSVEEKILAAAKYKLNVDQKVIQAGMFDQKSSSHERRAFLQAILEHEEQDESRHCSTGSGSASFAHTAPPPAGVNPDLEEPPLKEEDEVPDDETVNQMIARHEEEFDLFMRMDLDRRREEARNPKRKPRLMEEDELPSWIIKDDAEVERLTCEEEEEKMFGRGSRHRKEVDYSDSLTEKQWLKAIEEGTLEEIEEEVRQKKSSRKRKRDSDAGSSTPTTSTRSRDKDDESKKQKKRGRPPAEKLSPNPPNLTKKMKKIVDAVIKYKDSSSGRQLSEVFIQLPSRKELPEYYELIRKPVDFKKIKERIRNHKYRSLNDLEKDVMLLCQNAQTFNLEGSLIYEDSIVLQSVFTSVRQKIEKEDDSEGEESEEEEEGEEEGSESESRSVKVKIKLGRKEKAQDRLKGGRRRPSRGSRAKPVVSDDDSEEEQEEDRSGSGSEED
Description: SW1573 cells were seeded at 2x10^5Cells/well in a 6-well plate. 2 mL of EMEM medium supplemented with 10% FBS was added to each well and was incubated overnight to allow cell attachment. […] The cells were returned to the incubator and incubated for another 24 hours.
as §3, with “After 24” for “After 4”, “the” for “the culture”, “temperature. […]” for “temperature. Primary antibodies (SMARCA2: CST#11966S, SMARCA4: CST#49360S, GAPDH: CST#5174S) were added and incubated overnight at 4°C.”
as §4

T1 sequence (P51531 whole entry): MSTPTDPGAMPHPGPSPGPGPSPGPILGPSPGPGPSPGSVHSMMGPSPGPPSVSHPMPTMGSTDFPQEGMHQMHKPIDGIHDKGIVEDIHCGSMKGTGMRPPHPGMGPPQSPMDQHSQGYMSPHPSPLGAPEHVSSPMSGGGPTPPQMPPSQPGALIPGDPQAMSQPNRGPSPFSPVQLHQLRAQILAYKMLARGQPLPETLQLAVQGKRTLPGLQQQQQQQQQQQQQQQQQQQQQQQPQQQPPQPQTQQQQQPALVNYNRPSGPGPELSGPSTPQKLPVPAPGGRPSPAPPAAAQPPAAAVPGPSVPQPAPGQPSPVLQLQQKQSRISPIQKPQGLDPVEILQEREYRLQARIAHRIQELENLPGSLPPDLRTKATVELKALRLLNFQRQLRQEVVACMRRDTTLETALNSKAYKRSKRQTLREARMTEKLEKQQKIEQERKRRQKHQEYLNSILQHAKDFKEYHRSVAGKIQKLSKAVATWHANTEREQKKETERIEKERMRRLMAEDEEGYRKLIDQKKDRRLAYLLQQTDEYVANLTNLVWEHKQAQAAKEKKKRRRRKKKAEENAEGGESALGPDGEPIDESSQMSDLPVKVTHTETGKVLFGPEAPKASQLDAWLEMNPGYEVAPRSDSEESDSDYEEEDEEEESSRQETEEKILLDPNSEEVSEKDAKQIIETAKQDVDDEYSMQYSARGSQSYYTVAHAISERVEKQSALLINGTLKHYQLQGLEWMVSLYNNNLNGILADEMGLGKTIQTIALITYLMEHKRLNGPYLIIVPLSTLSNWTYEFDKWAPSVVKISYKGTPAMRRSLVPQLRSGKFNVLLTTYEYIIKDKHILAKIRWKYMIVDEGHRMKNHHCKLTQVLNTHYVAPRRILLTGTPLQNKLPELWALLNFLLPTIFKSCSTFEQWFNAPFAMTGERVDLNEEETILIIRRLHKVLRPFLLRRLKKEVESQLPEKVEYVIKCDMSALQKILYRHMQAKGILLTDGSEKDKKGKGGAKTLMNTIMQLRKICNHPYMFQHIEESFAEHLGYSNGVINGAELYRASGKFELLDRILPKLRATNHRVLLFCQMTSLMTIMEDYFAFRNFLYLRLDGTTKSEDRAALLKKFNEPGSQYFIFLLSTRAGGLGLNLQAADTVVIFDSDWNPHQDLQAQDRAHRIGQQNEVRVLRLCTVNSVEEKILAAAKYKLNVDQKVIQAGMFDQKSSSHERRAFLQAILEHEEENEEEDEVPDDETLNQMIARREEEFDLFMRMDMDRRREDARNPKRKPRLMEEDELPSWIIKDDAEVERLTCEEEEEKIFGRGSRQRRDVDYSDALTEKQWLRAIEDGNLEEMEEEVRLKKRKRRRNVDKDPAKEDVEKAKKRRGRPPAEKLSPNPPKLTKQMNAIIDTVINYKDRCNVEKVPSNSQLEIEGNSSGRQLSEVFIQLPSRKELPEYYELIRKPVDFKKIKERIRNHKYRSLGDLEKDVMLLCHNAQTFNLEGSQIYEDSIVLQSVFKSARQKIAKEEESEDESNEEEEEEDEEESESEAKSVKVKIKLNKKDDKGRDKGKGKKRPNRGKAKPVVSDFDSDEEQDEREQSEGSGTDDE

Degradation rate of SMARCA4 in SW1573 cells (%) ([3]; 1 nM) | Degradation rate of SMARCA4 in SW1573 cells (%) ([3]; 80 nM) | Dmax at 0.001 µM ([3]; 1 nM) [%] | Dmax at 0.08 µM ([3]; 80 nM) [%] | SMILES | Degradation rate of SMARCA2 in HeLa cells (%) ([1]; 1 nM) | Degradation rate of SMARCA2 in HeLa cells (%) ([1]; 80 nM) | Degradation rate of SMARCA2 in SW1573 cells (%) ([2]; 1 nM) | Degradation rate of SMARCA2 in SW1573 cells (%) ([2]; 80 nM)
 |  |  |  | Cn1c(=O)n(C2CCC(=O)NC2=O)c2ccc3c(c21)OCC31CCN(C2CN(c3cc(-c4ccccc4O)nnc3N)C2)CC1 (stereo not drawn) [SM-P-37, 3-(1'-(1-(3-amino-6-(2-hydroxyphenyl)pyridazin-4-yl)azetidin-3-yl)-1-methyl-2-oxo-1,2-dihydro-3H,7H-spiro[benzofuro[6,7-d]imidazole-6,4'-piperidin]-3-yl)piperidine-2,6-dione] | 24 | 33 |  | 
 |  |  |  | Cn1c(=O)n(C2CCC(=O)NC2=O)c2cc3c(cc21)C1(CCN(C2CC4(CCC(C#Cc5cc(-c6ccccc6O)nnc5N)CC4)C2)CC1)CO3 (stereo not drawn) [SM-P-4, 3-(1'-(7-((3-amino-6-(2-hydroxyphenyl)pyridazin-4-yl)ethynyl)spiro[3.5]nonan-2-yl)-1-methyl-2-oxo-1,2-dihydro-3H,6H-spiro[benzofuro[5,6-d]imidazole-7,4'-piperidin]-3-yl)piperidine-2,6-dione] | 100 | 99 | 100 | 100
-30 | -41 |  |  | Nc1nnc(-c2ccccc2O)cc1C#CC1CCC2(CC1)CC(N1CCN3c4cc(F)c(C(=O)N[C@H]5CCC(=O)NC5=O)cc4OC[C@H]3C1)C2 (stereo partly drawn) [SM-P-6, (R)-3-(7-((3-amino-6-(2-hydroxyphenyl)pyridazin-4-yl)ethynyl)spiro[3.5]nonan-2-yl)-n-((S)-2,6-dioxopiperidin-3-yl)-9-fluoro-1,2,3,4,4a,5-hexahydrobenzo[b]pyrazi no[1,2-d][1,4]oxazine-8-carboxamide] |  |  | 20 | 34
 |  |  |  | Cn1c(=O)n(C2CCC(=O)NC2=O)c2ccc3c(c21)OCC31CCN(C2CC3(CCC(C#Cc4cc(-c5ccccc5O)nnc4N)CC3)C2)CC1 (stereo not drawn) [SM-P-26, 3-(1'-(7-((3-amino-6-(2-hydroxyphenyl)pyridazin-4-yl)ethynyl)spiro[3.5]nonan-2-yl)-1-methyl-2-oxo-1,2-dihydro-3H,7H-spiro[benzofuro[6,7-d]imidazole-6,4'-piperidin]-3-yl)piperidine-2,6-dione] | 100 | 99 | 100 | 99
 |  | -18 | 12 | Nc1nnc(-c2ccccc2O)cc1C#CC1CCC2(CC1)CC(N1CCN3c4cc(NC5CCC(=O)NC5=O)ccc4OCC[C@H]3C1)C2 (stereo partly drawn) [SM-P-17] |  |  | 12 | 72
 |  | 14 | 4 | Nc1nnc(-c2ccccc2O)cc1C#CC1CCC2(CC1)CC(N1CCN3c4ccc(C(=O)N[C@H]5CCC(=O)NC5=O)c(F)c4OC[C@H]3C1)C2 (stereo partly drawn) [SM-P-22] |  |  | -9 | 28
 |  |  |  | Nc1nnc(-c2ccccc2O)cc1C#CC1CCC2(CC1)CC(N1CCC3(CC1)COc1cc(C(=O)N[C@H]4CCC(=O)NC4=O)c(F)cc13)C2 (stereo partly drawn) [SM-P-8] | 28 | 64 | 9 | 61
 |  |  |  | Nc1nnc(-c2ccccc2O)cc1C#CC1CCC2(CC1)CC(N1CCC3(CC1)COc1cc(F)c(C(=O)N[C@H]4CCC(=O)NC4=O)cc13)C2 (stereo partly drawn) [SM-P-21] | 15 | 4 | -12 | 14
 |  |  |  | COc1cc2c(cc1C(=O)N[C@H]1CCC(=O)NC1=O)C1(CCN(C3CC4(CCC(C#Cc5cc(-c6ccccc6O)nnc5N)CC4)C3)CC1)CO2 (stereo partly drawn) [SM-P-14, (S)-1'-(7-((3-amino-6-(2-hydroxyphenyl)pyridazin-4-yl)ethynyl)spiro[3.5]nonan-2-yl)-N-(2,6-dioxopiperidin-3-yl)-6-methoxy-2H-spiro[benzofuran-3,4'-piperidin]-5-carboxamide] | -7 | -3 | 22 | 14
 |  |  |  | Cn1c(=O)n(C2CCC(=O)NC2=O)c2cc3c(cc21)C1(CCN(C[C@H]2CC[C@H](Cn4cc(-c5cc(-c6ccccc6O)nnc5N)cn4)CC2)CC1)CO3 (stereo partly drawn) [SM-P-30, 3-(1'-(((1r,4r)-4-((4-(3-amino-6-(2-hydroxyphenyl)pyridazin-4-yl)-1H-pyrazol-1-yl)methyl)cyclohexyl)methyl)-1-methyl-2-oxo-1,2-dihydro-3H,6H-spiro[benzofuro[5,6-d]imidazole-7,4'-piperidin]-3-yl)piperidine-2,6-dione] | 99 | 90 | 99 | 97
 |  |  |  | Cn1c(=O)n(C2CCC(=O)NC2=O)c2ccc3c(c21)OCC31CCN(C[C@H]2CC[C@H](Cn3cc(-c4cc(-c5ccccc5O)nnc4N)cn3)CC2)CC1 (stereo partly drawn) [SM-P-29, 3-(1'-(((1r,4r)-4-((4-(3-amino-6-(2-hydroxyphenyl)pyridazin-4-yl)-1H-pyrazol-1-yl)methyl)cyclohexyl)methyl)-1-methyl-2-oxo-1,2-dihydro-3H,7H-spiro[benzofuro[6,7-d]imidazole-6,4'-piperidin]-3-yl)piperidine-2,6-dione] | 100 | 90 | 100 | 99
 |  |  |  | Cn1c(=O)n(C2CCC(=O)NC2=O)c2cc3c(cc21)C1(CCN(C2CN(c4cc(-c5ccccc5O)nnc4N)C2)CC1)CO3 (stereo not drawn) [SM-P-38, 3-(1'-(1-(3-amino-6-(2-hydroxyphenyl)pyridazin-4-yl)azetidin-3-yl)-1-methyl-2-oxo-1,2-dihydro-3H,6H-spiro[benzofuro[5,6-d]imidazole-7,4'-piperidin]-3-yl)piperidine-2,6-dione] | -6 | 10 | 24 | 29
 |  |  |  | Cn1c(=O)n(C2CCC(=O)NC2=O)c2cc3c(cc21)C1(CCN(C[C@H]2CC[C@H](n4cc(-c5cc(-c6ccccc6O)nnc5N)cn4)CC2)CC1)CO3 (stereo partly drawn) [SM-P-36] | 99 | 97 | 100 | 98
 |  |  |  | Cn1c(=O)n(C2CCC(=O)NC2=O)c2ccc3c(c21)OCC31CCN(C[C@H]2CC[C@H](n3cc(-c4cc(-c5ccccc5O)nnc4N)cn3)CC2)CC1 (stereo partly drawn) [SM-P-35] | 100 | 99 | 100 | 100
